Key:
[1] = system: KGN cells; assay: Effect on KGN cell growth (cell counting, trypan blue exclusion); type: cell-based, human; conditions: for toxicity to KGN cells: more than 1000 ng/ml, within 24 h
Method: Further, both compounds were dissolved in ethanol, and the final concentration of ethanol in the cell growth medium was 0.1% (w/v).
More specifically, the cells were plated onto a 24-well plate at 1×10^4 cells/well in DMEM/F-12 supplemented with 10% (v/v) FCS. […] Cell viability was assessed by the trypan blue exclusion method.

[2] = system: P450arom promoter II; assay: Luciferase reporter assay of P450arom promoter II in transfected KGN cells; type: cell-based, human; conditions: for luciferase activity of P450arom promoter II: 20 ng/ml, 48 h, basic state or stimulated by db-cAMP; for Ad4BP/SF-1-dependent increase of the luciferase activity: co-transfected with Ad4BP expression vector
Method: Thus, to determine whether or not the decreased expression of P450arom mRNA was regulated through promoter II, which is the major promoter in ovarian granulosa cells (Nishi et al, Endocrinol., 142:437–445 (2001); Means et al, Mol. Endocrinol., 5:2005–2013 (1991); and Carlone et al, Mol. Endocrinol., 11:292–304 (1997)), luciferase activity was determined using a 1 kb P450arom promoter II expression construct in the luciferase reporter vector, pGL3 (Mu et al, Mol. Cell. Endocrinol., 181:239–248 (2001)). pGL3 was obtained from Promega (Madison, Wis.). Transfection was performed using SuperFect reagents according to the manufacturer's instructions (Qiagen (Hilden, Germany)). More specifically, 1×10^5 cells were seeded in a 6-well plate 12 h prior to transfection, and transfected with 2.0 μg of DNA. Five nanograms of Renilla luciferase control reporter vector, pRL-CMV, obtained from Promega (Madison, Wis.), as an internal standard, were added per well to assess the transfection efficiency. […] The promoter activity determined is shown as a fold-increase in the luciferase activity normalized for Renilla luciferase activity (termed relative luciferase activity).

[3] = system: KGN cells; conditions: 200 ng/ml
Method: More specifically, early and late apoptotic changes in the cells were determined using an Annexin V-EGFP/PI Apoptosis Detection Kit, as described by Mu et al, Endocrinol., 142:3590–3597 (2001). […] After the treatment, the cells were washed once with phosphate-buffered saline (PBS), and then incubated with 200 ml of 1× binding buffer comprising 1.0 ml annexin V-EGFP and 1.0 ml propidium iodide (PI) at room temperature for 5 min in the dark. The cells were then scanned using a confocal laser scanning microscopy (Leica TCS-SP system, Leica Microsystems, Heidelberg, Germany) using a dual filter set for FITC & TRITC. The cell membrane was imaged for green fluorescence (stained by annexin V-EGFP) by excitation with the 488 nm line from an argon laser, and the emission was viewed through a 460 to 505 nm band pass filter. The cell nucleus was imaged for red fluorescence (stained by PI) by excitation with the 560 nm line from an argon laser, and the emission was viewed through a 520 to 580 nm band pass filter.

[4] = system: P450arom mRNA; conditions: 20 ng/ml, 48 h
Method: RNA extraction and RT-PCR analysis for P450arom mRNA were performed as described by Ikuyama et al, Clin. Endrocrinol., 48(5):647–654 (1998). Taq DNA polymerase was obtained from Promega (Madison, Wis.) All of the primers for the PCR were synthesized by Amersham Pharmacia Biotech (Osaka, Japan). The PCR products were electrophoresed on 2.0% (w/v) agarose gel containing […] ethidium bromide.
The relative expression levels of P450arom vis-à-vis β-actin were determined by the measuring of the intensity of the ethidium bromide.

[5] = system: Ad4BP; assay: Expression level of Ad4BP in KGN cells by RT-PCR; type: cell-based, human
[6] = target: T1, aromatase (Homo sapiens, UniProt P11511); assay: Aromatase activity in KGN cells by [3H]H2O release assay; type: cell-based; conditions: for effect on aromatase activity in KGN cells: method of Example 3, FIGS. 5A–5B
T1 construct: endogenous in cells; host or cells: KGN human ovarian granulosa-like tumor cell line (RIKEN RCB 1154)
T1 sequence (P11511 1-503): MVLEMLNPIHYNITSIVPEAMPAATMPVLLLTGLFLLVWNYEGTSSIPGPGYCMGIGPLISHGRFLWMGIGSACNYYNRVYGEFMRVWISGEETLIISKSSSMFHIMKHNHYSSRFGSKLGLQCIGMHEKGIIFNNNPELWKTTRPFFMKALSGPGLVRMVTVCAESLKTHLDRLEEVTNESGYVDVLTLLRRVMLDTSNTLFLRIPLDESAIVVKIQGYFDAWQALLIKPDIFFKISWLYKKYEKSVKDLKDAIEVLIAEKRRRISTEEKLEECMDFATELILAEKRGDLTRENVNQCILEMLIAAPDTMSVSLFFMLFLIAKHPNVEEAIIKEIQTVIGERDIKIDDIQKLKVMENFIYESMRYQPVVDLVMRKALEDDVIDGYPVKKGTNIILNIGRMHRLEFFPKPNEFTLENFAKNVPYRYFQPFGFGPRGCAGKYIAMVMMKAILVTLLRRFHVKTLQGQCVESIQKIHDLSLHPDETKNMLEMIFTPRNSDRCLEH
Method: Assaying for inhibition or activation of aromatase activity may be carried out by measuring the amount of [^3H]H2O released upon conversion of [1β-^3H]androstenedione to estrone using a modification of the method of Ackerman et al, J. Clin. Endocrinol. Metab., 53:412–417 (1981), or as described in Example 3 below. Briefly, the cells are plated on a petri dish (Falcon 3001) in culture medium with 10% (v/v) fetal calf serum (FCS). At is confluence, the culture medium is replaced with DMEM/Ham's F-12 containing 5.0–10% (v/v) dextran-coated, charcoal-treated FCS (DCS) (Hyclone, Logan Utah), and incubated for another 12 h in the presence or absence of 10^−5–10^−2 M db-cAMP (Wako Pure Chemical Industries Ltd.) and the test compound. After treatment, the cells are further incubated with 12.5 nM [1β-^3H]androstenedione (NEN Life Science Products, Boston, Mass.; SA, 27.5 Ci/mmol) for 6–12 h. After incubation, the medium (2.0 ml) is transferred to tubes containing 1.0 ml ice-cold 30% (w/v) trichloroacetic acid (TCA), and then centrifuged to remove precipitated protein. The cells are harvested using 0.25% (w/v) trypsin-1.0 mM EDTA to determine the protein concentration. The protocol for the extraction of the medium to measure the amount of [^3H]H2O is performed as described by Tanaka et al, Calcif. Tissue Int., 52:107–109 (1993). Finally, the amount of radioactivity in the [^3H]H2O is corrected by subtracting the blank values from each sample. The cell protein content is determined using a micro bicinichoninic acid kit (Pierce Chemical Co., Rockford, Ill.) after the cells are dissolved in 1.0 N NaOH. The aromatase activity is expressed as picomoles per mg cell protein. As a control, the aromatase activities of human granulosa cells (obtained from in vitro fertilization programs), human fibroblast, and HOS cell (human osteoblast-like cell line) (Tanaka et al, supra) can be measured in the same manner.
More specifically, aromatase activity was determined by measuring [^3H] H2O release upon conversion of [1β-^3H]androstenedione (A) to estrone (E1), as described by Mu et al, Biochem. Biophys. Res. Commun., 271(3):710–713 (2000). [1β-^3H]androstenedione was purchased from Amersham Pharmacia Biotech (Boston, Mass.).
The medium (2.0 ml) was extracted with chloroform, and was then centrifuged. The aqueous supernatant was mixed with 5.0% (w/v) charcoal/0.5% (w/v) dextran, and incubated for 30 min. Thereafter, the mixture was centrifuged and the supernatant was added to 5.0 ml of scintillation fluid and assayed for radioactivity. The amount of radioactivity in [^3H]H2O thus measured was standardized based on the protein concentration, which was determined using a micro BCA kit (Pierece Chemical Co., Rockford, Ill.), and expressed as pmol/mg protein/6 h.

[7] = system: marine neogastropods; conditions: cited from earlier work
[8] = system: Thais clavigera; conditions: rock shell; cited from earlier work
[9] = system: E2 production in KGN cells; assay: Estradiol (E2) production in cultured KGN cells (RIA); type: cell-based, human; conditions: 20 ng/ml, 7 days
Method: The media was collected and the E2 content in the media was determined by specific RIA (SRL, Inc. Tokyo, Japan).

[10] = same culture system (KGN cells)

Molecule: tributyltin [TBT]
- toxicity to KGN cells [1]: all of the cells died
- luciferase activity of P450arom promoter II [2]: decreased
- Ad4BP/SF-1-dependent increase of the luciferase activity [2]: significantly suppressed
- apoptotic changes (annexin V positive/PI negative) ([3]; 48 h): early apoptotic cells
- apoptotic changes (annexin V positive/PI positive) ([3]; 72 h): late apoptotic cells
- P450arom mRNA levels [4]: decrease
- expression level of Ad4BP [5]: unchanged

Molecule: N#Cc1ccc(N(Cc2ccc(Br)cc2)n2cnnc2)cc1 [YM511]
- extent of suppression of aromatase activity [6, 10]: complete suppression
- time for suppression of aromatase activity [6, 10]: ≤ 5 min

Molecule: CCCCNC(=O)n1c(NC(=O)OC)nc2ccccc21 [Benomyl]
- effect on aromatase activity in KGN cells [6]: activate aromatase activity

Molecule: CCCC(=O)Nc1ncnc2c1ncn2[C@@H]1O[C@@H]2COP(=O)(O)O[C@H]2[C@H]1OC(=O)CCC [db-cAMP, dibutyryl cyclic AMP]
- activation of the P450arom promoter II ([2]; 10^−4 M db-cAMP): 1.7 fold
- increase in aromatase activity over baseline ([6]; 10^−4 M db-cAMP): 1.7 fold

Molecule: CC(=O)O[C@]1(C(C)=O)CC[C@H]2[C@@H]3C=C(Cl)C4=CC(=O)[C@@H]5C[C@@H]5[C@]4(C)[C@H]3CC[C@@]21C [cyproterone acetate]
- effect on TBT-induced imposex ([7]; in vivo): completely suppressed

Molecule: ClC1=C(Cl)C2(Cl)C3C(Cl)C=CC3C1(Cl)C2(Cl)Cl (stereo not shown) [Heptachlor]
- effect on aromatase activity in KGN cells [6]: activate aromatase activity

Molecule: c1ccc2c(c1)c1cccc3ccc4cccc2c4c31 [Benzopyrene]
- effect on aromatase activity in KGN cells [6]: activate aromatase activity

Molecule: triphenyltin [TPT]
- effect on KGN cell proliferation ([1]; less than 50 ng/ml (2 or 20 ng/ml), 7 days): little effect
- toxicity to KGN cells [1]: all of the cells died
- effect on the development of imposex [8]: strong effect
- E2 concentration in the medium [9]: significant decrease
- luciferase activity of P450arom promoter II [2]: decreased
- Ad4BP/SF-1-dependent increase of the luciferase activity [2]: significantly suppressed
- aromatase activity, % of the baseline ([6]; 20 ng/ml, 72 h, basal (no db-cAMP)): about 30%
- effect on db-cAMP-induced increase in aromatase activity ([6]; 20 ng/ml, with 10^−4 M db-cAMP): suppressed
- expression level of Ad4BP [5]: unchanged

Molecule: CC1=CC(=O)C=C2CC[C@@H]3[C@H](CC[C@]4(C)C(=O)CC[C@@H]34)[C@@]12C [SH489]
- imposex induction ([7]; compared with TBT-exposure): same imposex-inducing effect
